This experiment has as its system IFN-β. As to the kind of experiment: IFN-β concentration in culture supernatant of LPS-stimulated Raw264.7 cells (ELISA). It counts as cell-based. Conditions: PIPA 1, 3 or 10 μM 24 h, then LPS 20 ng/mL 16 h. The procedure: Raw264.7 cells, a macrophage cell line, were seeded on a 96-well plate at a cell density of 2×10^4 cells/well, and were then culture for 8 hours for adhesion. Thereafter, IRF-PIPA was added to the cultured cells to final concentrations of 1, 3, or 10 μM. After completion of the culture for 24 hours, LPS was added to the cultured cells to a final concentration of 20 ng/mL, and the obtained mixture was then cultured for 16 hours, followed by the recovery of the supernatant. The supernatant was 2-fold diluted with 1% BSA-PBS, and the IFN-β concentration was then measured by ELISA.
Raw264.7 cells, a cell line, were purchased from RIKEN Cell Bank, and were then cultured using D-MEM (Nacalai Tesque) containing 10% FBS (SIGMA-ALDRICH) and Penicillin-Streptomycin mixed solution (Nacalai Tesque).
2×10^4 Raw264.7 cells were seeded on a plate, and were then treated with IRF-PIPA 1, IRF-PIPA 2, IRF-PIPA 3 or IRF-PIPA 4 for 24 hours. Thereafter, the cells were stimulated with LPS (Lipopolysaccharide, SIGMA-ALDRICH) for 16 hours, and the culture supernatant was then recovered. The concentration of cytokine in the culture supernatant was measured using ELISA kit (R&D SYSTEMS) according to the standard protocols. The culture supernatant was diluted with 1% BSA-PBS, as necessary, and was then analyzed. 2.5×10^5 Mouse peritoneal macrophages were seeded on a plate, and were then treated with IRF-PIPA 3 for 16 or 24 hours. Thereafter, the cells were stimulated with Poly(I:C) (InvivoGen) for 16 hours or with mRNA vaccine (Moderna) for 20 to 24 hours, and the culture supernatant was then recovered. The concentration of cytokine in the culture supernatant was measured using ELISA kit (R&D SYSTEMS) according to the same standard protocols. On the other hand, the concentration of cytokine in mouse plasma was measured by administering 400 μg/mouse IRF-PIPA 3 into the abdominal cavity of wild-type mice, then administering 250 μg of Poly(I:C) into the same abdominal cavity 24 hours after the IRF-PIPA 3 administration, then collecting blood further 2 hours after the Poly(I:C) administration, and then measuring the cytokine concentration in the plasma using ELISA kit (R&D SYSTEMS) according to standard protocols.
In general terms: In an ELISA, binding on a coated surface is turned into a signal by an enzyme label.

Consider `CC(=O)Nc1cn(C)c(C(=O)Nc2cc(C(=O)NCCC(=O)Nc3cc(C(=O)Nc4cn(C)c(C(=O)NCCCC(=O)Nc5cc(C(=O)Nc6cc(C(=O)NCCC(=O)Nc7cc(C(=O)Nc8cc(C(=O)NCCCN(C)C)n(C)c8)n(C)c7)n(C)c6)n(C)c5)n4)n(C)c3)n(C)c2)n1` [IRF-PIPA 1], for which the “concentration dependence of suppression of IFN-β production” value was “concentration dependence was not observed”.

With `CC(=O)Nc1cn(C)c(C(=O)Nc2cc(C(=O)NCCC(=O)Nc3cc(C(=O)Nc4cc(C(=O)NCCCC(=O)Nc5cn(C)c(C(=O)Nc6cc(C(=O)NCCC(=O)Nc7cc(C(=O)Nc8cc(C(=O)NCCCN(C)C)n(C)c8)n(C)c7)n(C)c6)n5)n(C)c4)n(C)c3)n(C)c2)n1` [IRF-PIPA 2], the “concentration dependence of suppression of IFN-β production” value is reported as “concentration dependence was not observed”.
